Values of other authors, collected in patent US20100330607A1, “PHOTOSWITCH-ENABLED ION CHANNEL ASSAY SYSTEM” (Photoswitch Biosciences, Inc., priority 2009, published 2010).
Like-named read-outs stand apart in the source and are kept apart here. Values belong to the compound of their own block, whether it stands above or below them.

Columns and labels:
[1] = read-out: Kd for Ca^2+
late INa [2] = details: ventricular myocytes from dog hearts
late INa [3] = details: ventricular myocytes from guinea-pig hearts
[4] = in the dark, in solution

- Kd [1]: 390 nM
Compound: Cc1ccc(N(CC(=O)O)CC(=O)O)c(OCCOc2cc(-c3c4cc(Cl)c(=O)cc-4oc4cc(O)c(Cl)cc34)ccc2N(CC(=O)O)CC(=O)O)c1 [Fluo-3]

Compound: COc1ccccc1OCC(O)CN1CCN(CC(=O)Nc2c(C)cccc2C)CC1 (centres unmarked) [ranolazine]
- inhibition of the late INa (late INa [2]): concentration-, voltage- and frequency-dependent inhibition
- inhibition of the late INa (late INa [3]): concentration-, voltage- and frequency-dependent inhibition

- Kd [1]: 345 nM
Compound: Fluo-4

Compound: Maleimide-Azobenzene-Glutamate [MAG]
- rate of thermal relaxation, from cis to trans [4]: about 18 mins
